Reference: patent US10710978B2, “STK4 inhibitors for treatment of hematologic malignancies” (Dana-Farber Cancer Institute, Inc., priority 2015, dated 2020)
Read-outs that look alike come from different tables or passages of the source.

How the values were obtained:
Assay in all cases: KiNativ assay
Assay type in all cases: binding
KSR1, KSR2 = details: H929 live cell
Description: (§1) Biochemical IC50s of the compounds of the present disclosure against various kinases were measured in a KiNativ assay. Compounds were screened in duplicate at 10 μM in H929 live cell. IC50 was measured via Mass spectroscopy (MS).

NEK7 = NEK7 (Homo sapiens (Human), UniProt Q8TDX7); details: H929 live cell
Description: as §1

CDK7 = CDK7 (Homo sapiens (Human), UniProt P50613); details: H929 live cell
Description: as §1

MAP3K1 = MAP3K1 (Homo sapiens (Human), UniProt Q13233); details: H929 live cell
Description: as §1

STLK6 = STLK6 (Homo sapiens (Human), UniProt Q9C0K7); details: H929 live cell
Description: as §1

PI4KA, PI4KAP2 = details: H929 live cell
Description: as §1

BRAF = BRAF (Homo sapiens (Human), UniProt P15056); details: H929 live cell
Description: as §1

CK1g3 = CK1g3 (Homo sapiens (Human), UniProt Q9Y6M4); details: H929 live cell
Description: as §1

p70S6Kb = p70S6Kb (Homo sapiens (Human), UniProt Q9UBS0); details: H929 live cell
Description: as §1

GCN2 domain2 = GCN2 domain2 (Homo sapiens (Human), UniProt Q9P2K8); details: H929 live cell
Description: as §1

IKKa = IKKa (Homo sapiens (Human), UniProt O15111); details: H929 live cell
Description: as §1

AKT1 = AKT1 (Homo sapiens (Human), UniProt P31749); details: H929 live cell
Description: as §1

MLKL = MLKL (Homo sapiens (Human), UniProt Q8NB16); details: H929 live cell
Description: as §1

RSK1 domain2 = RSK1 domain2 (Homo sapiens (Human), UniProt Q15418); details: H929 live cell
Description: as §1

SLK = SLK (Homo sapiens (Human), UniProt Q9H2G2); details: H929 live cell
Description: as §1

MAST3 = MAST3 (Homo sapiens (Human), UniProt O60307); details: H929 live cell
Description: as §1

MSK2 domain1 = MSK2 domain1 (Homo sapiens (Human), UniProt O75676); details: H929 live cell
Description: as §1

MAP2K1 = MAP2K1 (Homo sapiens (Human), UniProt Q02750); details: H929 live cell
Description: as §1

p38a = p38a (Homo sapiens (Human), UniProt Q16539); details: H929 live cell, range class, read-out: % inhibition
Description: as §1

MAP3K2 = MAP3K2 (Homo sapiens (Human), UniProt Q9Y2U5); details: H929 live cell
Description: as §1

AMPKa1, AMPKa2 = details: H929 live cell
Description: as §1

NuaK2 = NuaK2 (Homo sapiens (Human), UniProt Q9H093); details: H929 live cell
Description: as §1

PKR = PKR (Homo sapiens (Human), UniProt P19525); details: H929 live cell
Description: as §1

IRAK4 = IRAK4 (Homo sapiens (Human), UniProt Q9NWZ3); details: H929 live cell
Description: as §1

MST2 = MST2 (Homo sapiens (Human), UniProt Q13188); details: H929 live cell
Description: as §1

ABL, ARG = details: H929 live cell
Description: as §1

PAN3 = PAN3 (Homo sapiens (Human), UniProt Q58A45); details: H929 live cell
Description: as §1

LYN = LYN (Homo sapiens (Human), UniProt P07948); details: H929 live cell
Description: as §1

CDK11, CDK8 = details: H929 live cell
Description: as §1

AurB = AurB (Homo sapiens (Human), UniProt Q96GD4); details: H929 live cell
Description: as §1

MAP2K1, MAP2K2 = details: 10 μM, H929 live cell; range class
Description: as §1

PKD2 = PKD2 (Homo sapiens (Human), UniProt Q9BZL6); details: H929 live cell
Description: as §1

MLK3 = MLK3 (Homo sapiens (Human), UniProt Q16584); details: H929 live cell
Description: as §1

PKCi = PKCi (Homo sapiens (Human), UniProt P41743); details: H929 live cell
Description: as §1

[1] = range class, read-out: % inhibition

MLK3, sequence (Q16584 whole entry): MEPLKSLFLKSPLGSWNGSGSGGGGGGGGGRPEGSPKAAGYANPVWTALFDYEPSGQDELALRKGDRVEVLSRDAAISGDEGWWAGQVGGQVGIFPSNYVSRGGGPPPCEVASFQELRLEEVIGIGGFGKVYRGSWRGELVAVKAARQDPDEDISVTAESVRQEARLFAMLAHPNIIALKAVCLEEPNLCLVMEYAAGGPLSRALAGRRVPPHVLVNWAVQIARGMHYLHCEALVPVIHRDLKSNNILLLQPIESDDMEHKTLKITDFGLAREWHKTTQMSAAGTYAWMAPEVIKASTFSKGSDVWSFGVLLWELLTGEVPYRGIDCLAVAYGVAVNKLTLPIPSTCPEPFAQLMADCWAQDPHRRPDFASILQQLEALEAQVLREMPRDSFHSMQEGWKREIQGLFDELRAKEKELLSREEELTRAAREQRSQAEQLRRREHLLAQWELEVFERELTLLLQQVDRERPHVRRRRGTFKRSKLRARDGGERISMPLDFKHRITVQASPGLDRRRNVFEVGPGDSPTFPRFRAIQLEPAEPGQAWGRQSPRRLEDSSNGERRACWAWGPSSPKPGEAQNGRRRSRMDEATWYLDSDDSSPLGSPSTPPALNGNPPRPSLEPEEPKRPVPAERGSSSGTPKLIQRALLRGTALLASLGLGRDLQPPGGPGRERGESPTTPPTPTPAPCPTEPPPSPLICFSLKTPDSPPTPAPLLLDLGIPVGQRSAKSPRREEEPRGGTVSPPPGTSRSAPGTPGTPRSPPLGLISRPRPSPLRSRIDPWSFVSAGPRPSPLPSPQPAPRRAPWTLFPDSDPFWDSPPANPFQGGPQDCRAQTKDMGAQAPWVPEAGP
SLK, sequence (Q9H2G2 whole entry): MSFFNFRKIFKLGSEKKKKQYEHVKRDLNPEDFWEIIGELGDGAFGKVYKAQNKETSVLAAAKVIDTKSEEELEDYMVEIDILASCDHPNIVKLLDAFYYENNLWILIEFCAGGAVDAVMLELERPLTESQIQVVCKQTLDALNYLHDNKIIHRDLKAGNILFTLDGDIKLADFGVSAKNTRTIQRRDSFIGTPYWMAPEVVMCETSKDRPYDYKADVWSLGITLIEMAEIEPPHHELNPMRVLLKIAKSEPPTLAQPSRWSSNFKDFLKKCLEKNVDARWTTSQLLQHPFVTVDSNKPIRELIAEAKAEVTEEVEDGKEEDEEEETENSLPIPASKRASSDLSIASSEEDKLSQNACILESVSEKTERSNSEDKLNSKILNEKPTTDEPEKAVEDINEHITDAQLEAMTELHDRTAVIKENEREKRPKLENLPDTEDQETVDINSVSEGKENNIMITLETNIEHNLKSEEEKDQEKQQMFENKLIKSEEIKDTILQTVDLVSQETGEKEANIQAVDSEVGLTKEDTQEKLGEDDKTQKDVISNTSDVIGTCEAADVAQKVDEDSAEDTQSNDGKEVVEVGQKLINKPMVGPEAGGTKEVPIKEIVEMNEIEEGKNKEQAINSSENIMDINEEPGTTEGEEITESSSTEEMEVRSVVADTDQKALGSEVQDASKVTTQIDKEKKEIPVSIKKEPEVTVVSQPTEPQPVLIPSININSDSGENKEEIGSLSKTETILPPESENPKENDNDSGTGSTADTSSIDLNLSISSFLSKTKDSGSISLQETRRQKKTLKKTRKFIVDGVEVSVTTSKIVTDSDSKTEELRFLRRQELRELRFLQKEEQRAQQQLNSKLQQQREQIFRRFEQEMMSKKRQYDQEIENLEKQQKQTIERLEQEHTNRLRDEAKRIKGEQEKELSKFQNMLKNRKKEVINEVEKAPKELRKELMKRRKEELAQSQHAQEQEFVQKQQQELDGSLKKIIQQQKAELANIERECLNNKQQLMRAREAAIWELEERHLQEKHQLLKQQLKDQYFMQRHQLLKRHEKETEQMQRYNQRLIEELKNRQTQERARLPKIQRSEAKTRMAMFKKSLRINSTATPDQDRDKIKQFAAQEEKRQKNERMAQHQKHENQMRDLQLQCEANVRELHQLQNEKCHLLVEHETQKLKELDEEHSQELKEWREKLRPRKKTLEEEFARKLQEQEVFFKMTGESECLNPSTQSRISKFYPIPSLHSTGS
MAP3K1, sequence (Q13233 whole entry): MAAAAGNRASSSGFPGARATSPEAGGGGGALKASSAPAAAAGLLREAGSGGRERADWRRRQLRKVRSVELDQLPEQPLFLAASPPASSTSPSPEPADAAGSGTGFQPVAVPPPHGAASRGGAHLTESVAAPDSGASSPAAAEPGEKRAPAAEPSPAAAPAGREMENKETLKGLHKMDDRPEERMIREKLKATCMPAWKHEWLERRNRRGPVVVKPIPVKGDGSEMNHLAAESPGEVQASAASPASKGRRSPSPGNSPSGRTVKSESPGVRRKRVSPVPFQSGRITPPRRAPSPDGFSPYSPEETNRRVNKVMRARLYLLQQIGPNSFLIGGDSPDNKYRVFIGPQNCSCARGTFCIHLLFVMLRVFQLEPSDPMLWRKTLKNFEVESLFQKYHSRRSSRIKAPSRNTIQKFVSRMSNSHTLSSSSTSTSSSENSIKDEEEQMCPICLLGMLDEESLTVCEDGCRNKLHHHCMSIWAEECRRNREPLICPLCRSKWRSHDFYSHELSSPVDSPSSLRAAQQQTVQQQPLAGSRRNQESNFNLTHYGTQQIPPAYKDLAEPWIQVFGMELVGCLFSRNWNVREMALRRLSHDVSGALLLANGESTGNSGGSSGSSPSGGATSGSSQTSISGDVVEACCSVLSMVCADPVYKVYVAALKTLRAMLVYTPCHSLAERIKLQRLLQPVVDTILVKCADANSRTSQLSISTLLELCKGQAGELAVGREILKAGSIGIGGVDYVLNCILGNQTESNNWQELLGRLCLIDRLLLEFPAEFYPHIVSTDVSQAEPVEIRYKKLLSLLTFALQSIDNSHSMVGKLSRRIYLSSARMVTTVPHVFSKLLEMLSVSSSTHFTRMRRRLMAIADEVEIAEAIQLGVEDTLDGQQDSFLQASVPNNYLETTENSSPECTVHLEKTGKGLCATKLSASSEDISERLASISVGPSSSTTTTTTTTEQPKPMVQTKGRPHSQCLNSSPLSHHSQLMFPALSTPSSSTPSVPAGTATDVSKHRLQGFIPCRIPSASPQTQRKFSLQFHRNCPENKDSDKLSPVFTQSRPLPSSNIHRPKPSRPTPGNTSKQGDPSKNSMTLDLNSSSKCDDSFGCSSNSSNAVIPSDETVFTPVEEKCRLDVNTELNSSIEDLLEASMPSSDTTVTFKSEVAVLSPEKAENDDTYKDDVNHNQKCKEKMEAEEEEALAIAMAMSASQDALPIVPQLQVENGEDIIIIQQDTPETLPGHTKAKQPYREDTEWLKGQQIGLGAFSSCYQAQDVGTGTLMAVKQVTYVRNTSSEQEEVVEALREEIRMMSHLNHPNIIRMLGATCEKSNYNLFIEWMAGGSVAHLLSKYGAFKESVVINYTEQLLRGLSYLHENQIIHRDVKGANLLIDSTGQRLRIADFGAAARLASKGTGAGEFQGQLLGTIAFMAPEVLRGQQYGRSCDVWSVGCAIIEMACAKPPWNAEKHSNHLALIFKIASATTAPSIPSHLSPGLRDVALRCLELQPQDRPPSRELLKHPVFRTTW
PAN3, sequence (Q58A45 whole entry): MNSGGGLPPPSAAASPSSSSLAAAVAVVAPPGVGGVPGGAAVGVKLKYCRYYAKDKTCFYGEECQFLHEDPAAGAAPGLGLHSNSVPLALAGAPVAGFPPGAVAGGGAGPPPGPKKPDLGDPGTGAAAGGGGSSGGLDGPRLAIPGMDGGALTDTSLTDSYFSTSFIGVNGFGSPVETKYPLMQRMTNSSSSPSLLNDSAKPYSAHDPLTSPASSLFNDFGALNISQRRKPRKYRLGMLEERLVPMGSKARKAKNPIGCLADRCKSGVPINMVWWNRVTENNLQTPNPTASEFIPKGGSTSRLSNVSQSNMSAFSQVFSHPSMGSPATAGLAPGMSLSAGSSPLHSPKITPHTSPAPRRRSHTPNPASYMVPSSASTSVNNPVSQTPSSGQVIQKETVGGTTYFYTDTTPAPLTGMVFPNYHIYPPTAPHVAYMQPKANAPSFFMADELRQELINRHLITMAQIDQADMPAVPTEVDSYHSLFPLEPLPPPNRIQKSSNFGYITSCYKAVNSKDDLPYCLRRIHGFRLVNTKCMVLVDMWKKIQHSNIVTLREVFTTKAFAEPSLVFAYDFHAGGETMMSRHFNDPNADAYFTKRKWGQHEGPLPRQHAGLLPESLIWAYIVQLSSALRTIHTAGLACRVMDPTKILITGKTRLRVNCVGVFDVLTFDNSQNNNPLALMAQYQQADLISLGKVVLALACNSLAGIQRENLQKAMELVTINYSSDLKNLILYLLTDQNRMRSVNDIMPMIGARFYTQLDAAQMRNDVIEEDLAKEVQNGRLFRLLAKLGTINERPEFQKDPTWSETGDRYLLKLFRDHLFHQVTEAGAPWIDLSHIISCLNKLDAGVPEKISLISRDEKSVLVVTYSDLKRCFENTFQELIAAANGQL
STLK6, sequence (Q9C0K7 whole entry): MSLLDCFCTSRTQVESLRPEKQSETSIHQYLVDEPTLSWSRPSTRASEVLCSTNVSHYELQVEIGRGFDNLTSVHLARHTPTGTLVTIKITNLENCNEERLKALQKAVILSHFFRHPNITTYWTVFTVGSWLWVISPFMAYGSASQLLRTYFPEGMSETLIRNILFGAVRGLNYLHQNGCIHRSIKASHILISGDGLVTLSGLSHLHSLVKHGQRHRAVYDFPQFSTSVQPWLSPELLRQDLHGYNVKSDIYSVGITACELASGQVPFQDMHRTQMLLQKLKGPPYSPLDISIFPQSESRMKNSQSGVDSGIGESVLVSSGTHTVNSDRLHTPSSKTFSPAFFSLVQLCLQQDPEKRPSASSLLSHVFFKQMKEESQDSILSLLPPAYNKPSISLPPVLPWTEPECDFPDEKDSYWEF

COc1cc(NS(=O)(=O)C2CC2)ccc1-c1cnc(N)c(-c2ccc3c(c2)CCNC3=O)c1 [Compound I-50, N-(4-(6-amino-5-(1-oxo-1,2,3,4-tetrahydroisoquinolin-6-yl)pyridin-3-yl)-3-methoxyphenyl) cyclopropanesulfonamide]
% inhibition (KSR1, KSR2; 10 μM, range class): 0.0% | inhibition (10 μM) (KSR1, KSR2): −18.4% | inhibition at 10 µM (NEK7; [1]): 0% | inhibition at 10 µM (NEK7; read-out: inhibition (10 μM)): -18.9% | inhibition at 10 µM (CDK7; [1]): 0% | inhibition at 10 µM (CDK7; read-out: inhibition (10 μM)): 19.4% | inhibition at 10 µM (MAP3K1; [1]): 75 to 90% | inhibition at 10 µM (MAP3K1; read-out: inhibition (10 μM)): 86.7% | inhibition at 10 µM (STLK6; [1]): 0% | inhibition at 10 µM (STLK6; read-out: inhibition (10 μM)): -15% | % inhibition (PI4KA, PI4KAP2; 10 μM, range class): 0.0% | inhibition (10 μM) (PI4KA, PI4KAP2): 24.7% | inhibition at 10 µM (BRAF; [1]): 0% | inhibition at 10 µM (BRAF; read-out: inhibition (10 μM)): -35.8% | inhibition at 10 µM (CK1g3; [1]): 75 to 90% | inhibition at 10 µM (CK1g3; read-out: inhibition (10 μM)): 77.1% | inhibition at 10 µM (p70S6Kb; [1]): 0% | inhibition at 10 µM (p70S6Kb; read-out: inhibition (10 μM)): 14% | inhibition at 10 µM (GCN2 domain2; [1]): 0% | inhibition at 10 µM (GCN2 domain2; read-out: inhibition (10 μM)): -12.3% | inhibition at 10 µM (IKKa; [1]): 0% | inhibition at 10 µM (IKKa; read-out: inhibition (10 μM)): -1.9% | inhibition at 10 µM (AKT1; [1]): 0% | inhibition at 10 µM (AKT1; read-out: inhibition (10 μM)): 2.1% | inhibition at 10 µM (MLKL; [1]): 0% | inhibition at 10 µM (MLKL; read-out: inhibition (10 μM)): 8.2% | inhibition at 10 µM (RSK1 domain2; [1]): 0% | inhibition at 10 µM (RSK1 domain2; read-out: inhibition (10 μM)): 1% | inhibition at 10 µM (SLK; [1]): 50 to 75% | inhibition at 10 µM (SLK; read-out: inhibition (10 μM)): 70.6% | inhibition at 10 µM (MAST3; [1]): 0% | inhibition at 10 µM (MAST3; read-out: inhibition (10 μM)): -0.5% | inhibition at 10 µM (MSK2 domain1; [1]): 0% | inhibition at 10 µM (MSK2 domain1; read-out: inhibition (10 μM)): -2.8% | inhibition at 10 µM (MAP2K1; [1]): 0% | inhibition at 10 µM (MAP2K1; read-out: inhibition (10 μM)): 17.8% | inhibition at 10 µM (p38a): 0% | inhibition at 10 µM (MAP3K2; [1]): 0% | inhibition at 10 µM (MAP3K2; read-out: inhibition (10 μM)): -39.1% | % inhibition (AMPKa1, AMPKa2; 10 μM, range class): 0.0% | inhibition (10 μM) (AMPKa1, AMPKa2): −8.2% | inhibition at 10 µM (NuaK2; [1]): 35 to 40% | inhibition at 10 µM (NuaK2; read-out: inhibition (10 μM)): 40.8% | inhibition at 10 µM (PKR; [1]): 0% | inhibition at 10 µM (PKR; read-out: inhibition (10 μM)): 1.8% | inhibition at 10 µM (IRAK4; [1]): 0% | inhibition at 10 µM (IRAK4; read-out: inhibition (10 μM)): 19.6% | inhibition at 10 µM (MST2; [1]): > 90% | inhibition at 10 µM (MST2; read-out: inhibition (10 μM)): 97.5% | % inhibition (ABL, ARG; 10 μM, range class): 0.0% | inhibition (10 μM) (ABL, ARG): −53.7% | inhibition at 10 µM (PAN3; [1]): 0% | inhibition at 10 µM (PAN3; read-out: inhibition (10 μM)): 14.3% | inhibition at 10 µM (LYN; [1]): 0% | inhibition at 10 µM (LYN; read-out: inhibition (10 μM)): 9.7% | % inhibition (CDK11, CDK8; 10 μM, range class): 35-40% | inhibition (10 μM) (CDK11, CDK8): 38.1% | inhibition at 10 µM (AurB; [1]): 0% | inhibition at 10 µM (AurB; read-out: inhibition (10 μM)): 7.7% | % inhibition (MAP2K1, MAP2K2): 0.0% | inhibition at 10 µM (PKD2; [1]): 50 to 75% | inhibition at 10 µM (PKD2; read-out: inhibition (10 μM)): 51.5% | inhibition at 10 µM (MLK3; [1]): 35 to 40% | inhibition at 10 µM (MLK3; read-out: inhibition (10 μM)): 40.9% | inhibition at 10 µM (PKCi; [1]): 0% | inhibition at 10 µM (PKCi; read-out: inhibition (10 μM)): -15%
